Laboratory results published in PMC12635197, “Discovery of first-in-class inhibitors of the TRF1:TIN2 protein:protein interaction by fragment screening” (Scientific Reports, 2025).

T1: TRF1TRFH (Homo sapiens, UniProt P54274)
T1 construct: encoding residues 47–268, UniProt identifier P54274-1; His6-MBP (TEV-cleavable) (N, cleaved yes); made in house; host or cells: E. coli BL21-CodonPlus(DE3)-RIL
T1 sequence (P54274 47-268): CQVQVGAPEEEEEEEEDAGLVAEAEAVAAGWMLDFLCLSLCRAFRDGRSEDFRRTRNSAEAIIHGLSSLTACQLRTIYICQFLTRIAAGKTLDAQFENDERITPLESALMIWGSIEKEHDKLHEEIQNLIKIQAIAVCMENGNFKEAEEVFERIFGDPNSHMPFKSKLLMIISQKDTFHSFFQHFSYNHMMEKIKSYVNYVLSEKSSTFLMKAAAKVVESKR

T2: (StrepII)2-TEV-tagged TIN2, subunit of recombinant shelterin (UniProt Q9BSI4-1 1-451)
T2 construct: TIN2, gene NM_001099274.1, codon-optimised; a TEV site lies between tag and protein; The separately made control protein is called TIN2L; The discussion says that the complex carries a short peptidic tag on TIN2; source: Sf9, co-expressed with the other shelterin subunits (MultiBac baculovirus), purified (StrepTrap, serial SEC)
T2 sequence (looked up): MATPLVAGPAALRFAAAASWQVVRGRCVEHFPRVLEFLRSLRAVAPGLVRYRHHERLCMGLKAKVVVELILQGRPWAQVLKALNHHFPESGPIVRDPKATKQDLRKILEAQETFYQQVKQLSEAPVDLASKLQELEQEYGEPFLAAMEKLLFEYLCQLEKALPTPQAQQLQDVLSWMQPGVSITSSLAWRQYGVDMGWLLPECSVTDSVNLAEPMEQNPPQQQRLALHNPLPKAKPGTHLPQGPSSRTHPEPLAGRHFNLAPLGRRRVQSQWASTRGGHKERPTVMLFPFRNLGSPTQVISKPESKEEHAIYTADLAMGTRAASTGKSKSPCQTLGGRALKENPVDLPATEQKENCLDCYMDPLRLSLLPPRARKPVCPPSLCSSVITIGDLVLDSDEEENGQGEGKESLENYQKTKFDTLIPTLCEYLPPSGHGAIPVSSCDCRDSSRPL

B1: TPP1, subunit of recombinant shelterin (natural protein, UniProt Q96AP0 1-458, looked up)
chain: MAGSGRLVLRPWIRELILGSETPSSPRAGQLLEVLQDAEAAVAGPSHAPDTSDVGATLLVSDGTHSVRCLVTREALDTSDWEEKEFGFRGTEGRLLLLQDCGVHVQVAEGGAPAEFYLQVDRFSLLPTEQPRLRVPGCNQDLDVQKKLYDCLEEHLSESTSSNAGLSLSQLLDEMREDQEHQGALVCLAESCLTLEGPCTAPPVTHWAASRCKATGEAVYTVPSSMLCISENDQLILSSLGPCQRTQGPELPPPDPALQDLSLTLIASPPSSPSSSGTPALPGHMSSEESGTSISLLPALSLAAPDPGQRSSSQPSPAICSAPATLTPRSPHASRTPSSPLQSCTPSLSPRSHVPSPHQALVTRPQKPSLEFKEFVGLPCKNRPPFPRTGATRGAQEPCSVWEPPKRHRDGSAFQYEYEPPCTSLCARVQAVRLPPQLMAWALHFLMDAQPGSEPTPM
notes: TPP1 (shelterin subunit), gene BC016904.1, codon-optimised
B2: POT1, subunit of recombinant shelterin (natural protein, UniProt Q9NUX5-1 1-634, looked up)
chain: MSLVPATNYIYTPLNQLKGGTIVNVYGVVKFFKPPYLSKGTDYCSVVTIVDQTNVKLTCLLFSGNYEALPIIYKNGDIVRFHRLKIQVYKKETQGITSSGFASLTFEGTLGAPIIPRTSSKYFNFTTEDHKMVEALRVWASTHMSPSWTLLKLCDVQPMQYFDLTCQLLGKAEVDGASFLLKVWDGTRTPFPSWRVLIQDLVLEGDLSHIHRLQNLTIDILVYDNHVHVARSLKVGSFLRIYSLHTKLQSMNSENQTMLSLEFHLHGGTSYGRGIRVLPESNSDVDQLKKDLESANLTANQHSDVICQSEPDDSFPSSGSVSLYEVERCQQLSATILTDHQYLERTPLCAILKQKAPQQYRIRAKLRSYKPRRLFQSVKLHCPKCHLLQEVPHEGDLDIIFQDGATKTPDVKLQNTSLYDSKIWTTKNQKGRKVAVHFVKNNGILPLSNECLLLIEGGTLSEICKLSNKFNSVIPVRSGHEDLELLDLSAPFLIQGTIHHYGCKQCSSLRSIQNLNSLVDKTSWIPSSVAEALGIVPLQYVFVMTFTLDDGTGVLEAYLMDSDKFFQIPASEVLMDDDLQKSVDMIMDMFCPPGIKIDAYPWLECFIKSYNVTNGTDNQICYQIFDTTVAEDVI
notes: POT1 (shelterin subunit), gene NM_015450, codon-optimised
B3: TRF2 (telomeric repeat-binding factor 2), subunit of recombinant shelterin (natural protein, UniProt Q15554-3 1-542, looked up)
chain: MAAGAGTAGPASGPGVVRDPAASQPRKRPGREGGEGARRSDTMAGGGGSSDGSGRAAGRRASRSSGRARRGRHEPGLGGPAERGAGEARLEEAVNRWVLKFYFHEALRAFRGSRYGDFRQIRDIMQALLVRPLGKEHTVSRLLRVMQCLSRIEEGENLDCSFDMEAELTPLESAINVLEMIKTEFTLTEAVVESSRKLVKEAAVIICIKNKEFEKASKILKKHMSKDPTTQKLRNDLLNIIREKNLAHPVIQNFSYETFQQKMLRFLESHLDDAEPYLLTMAKKALKSESAASSTGKEDKQPAPGPVEKPPREPARQLRNPPTTIGMMTLKAAFKTLSGAQDSEAAFAKLDQKDLVLPTQALPASPALKNKRPRKDENESSAPADGEGGSELQPKNKRMTISRLVLEEDSQSTEPSAGLNSSQEAASAPPSKPTVLNQPLPGEKNPKVPKGKWNSSNGVEEKETWVEEDELFQVQAAPDEDSTTNITKKQKWTVEESEWVKAGVQKYGEGNWAAISKNYPFVNRTAVMIKDRWRTMKRLGMN
notes: TRF2, gene NM_005652.4, codon-optimised
B4: RAP1, subunit of recombinant shelterin (natural protein, UniProt Q9NYB0 1-399, looked up)
chain: MAEAMDLGKDPNGPTHSSTLFVRDDGSSMSFYVRPSPAKRRLSTLILHGGGTVCRVQEPGAVLLAQPGEALAEASGDFISTQYILDCVERNERLELEAYRLGPASAADTGSEAKPGALAEGAAEPEPQRHAGRIAFTDADDVAILTYVKENARSPSSVTGNALWKAMEKSSLTQHSWQSLKDRYLKHLRGQEHKYLLGDAPVSPSSQKLKRKAEEDPEAADSGEPQNKRTPDLPEEEYVKEEIQENEEAVKKMLVEATREFEEVVVDESPPDFEIHITMCDDDPPTPEEDSETQPDEEEEEEEEKVSQPEVGAAIKIIRQLMEKFNLDLSTVTQAFLKNSGELEATSAFLASGQRADGYPIWSRQDDIDLQKDDEDTREALVKKFGAQNVARRIEFRKK
notes: RAP1 (TRF2-associated shelterin subunit), gene NM_018975.3, codon-optimised

Legend:
[1] = Fragment solubility assay (quantitative 1H NMR); type: physicochemical; settings: Supplementary Table 1
Description: Aqueous solubility test samples were prepared by adding 3.6 µL compound (50 mM stock in 100% DMSO-d6) to 176.4 µL NMR buffer in a microcentrifuge tube. The samples were incubated overnight and transferred to a 3-mm NMR tube (Bruker, Part No. Z112272). ^1H NMR spectra were recorded, with the DMSO and water signals dampened. 1 mM caffeine (Sigma, C1778 in PBS (pH 7.4) with 1% DMSO-d6) was used as a standard to quantify the ligand signals and determine the concentration of samples.
NMR data were collected on a Bruker Avance Neo 600-MHz spectrometer equipped with a 5 mm TCI-CryoProbe. The ^1H spectrum was referenced to the internal deuterated solvent. The operating frequency for ^1H was 600 MHz. All NMR data were acquired at the temperature of 298 K. All data were acquired and processed using Bruker Topspin 4.0. The quantitative ^1H-NMR spectrum was acquired using a Bruker standard 1D lc1pngppsf2 pulse sequence with 32 scans. The sweep width was 6.2 ppm with O1P set to 8.8 ppm, and the FID contained 16k time-domain data points. Relaxation delay was set to 20 s. Water signal was suppressed.

[2] = biological target: T1, TRF1TRFH; test: LO-NMR CPMG assay (relaxation-edited), singletons; type: binding; settings: single experiment
Description: We next used a LO-NMR CPMG assay to orthogonally validate XChem hits in solution, aiming to eliminate false positives and rank hit matter for follow-up studies. Compounds were tested as singletons and prepared in two samples containing either compound alone (sample 1) or compound + TRF1TRFH (sample 2).
The fragment screen by LO-NMR was carried out using conditions described previously, with some modifications. Fragments were dispensed in triplicate into a 384-well plate using an Echo 550 liquid handler to give a final ligand concentration of 250 µM (total sample volume of 40 µL). 40 µL of TRF1TRFH protein (in NMR buffer; 20 µM final protein concentration in the assay) were added to the ‘protein’ samples; 40 µL of TRF1TRFH protein and TIN2TBM peptide (21-mer, Ac-[…]-CONH2; 40 µM final concentration in the assay) were both added to the ‘competitor’ samples; 40 µL NMR buffer were added to the ‘compound-only’ samples. Solutions were transferred to 1.7-mm NMR tubes using a Bruker SamplePro Tube robotics system. ^1H NMR spectra were recorded on a Bruker AVIII 500 MHz spectrometer at 298 K, equipped with a 1.7-mm TXI probe, with samples in 1.7-mm SampleJET NMR tubes (Bruker). DMSO and water signals were dampened. A relaxation spin filter was applied at 400 ms. Data were processed using Bruker Topspin 4.0. Lines were broadened with LB = 3.0, and the baseline was corrected between 6.0 and 10.0 ppm.
The data were then analysed using the MNova Screen software. Only peaks between 5.5 and 9.5 ppm were considered. Peaks with a height of < 5% maximum peak height within the region of interest were considered noise, and the minimum matched peak level was set at > 51%. The relative peak intensity change (I) was calculated for all peaks in the 5.5–9.5 ppm region, for each compound, as described previously. The average integral for all peaks between 6.0 and 10.0 ppm was calculated, and the differences between compound-only, compound-plus-protein, and compound-plus-protein-plus-competitor samples were compared. The net recovery was calculated by subtracting the reduction in peak integral of the compound-plus-protein samples from the compound-plus-protein-plus-competitor samples.
For hit validation, relaxation-edited LO-NMR experiments were repeated as described above on single compounds instead of fragment cocktails.

[3] = biological target: T1, TRF1TRFH; test: Crystal soaking of TRF1TRFH crystals; settings: soaking into TRF1TRFH crystals; Supplementary Table 1
From the text: Attempts to soak TRF1TRFH crystals with the commercially available analogues of the XChem hit 5 were also unsuccessful. Only one slightly smaller analogue (22) could be soaked into TRF1TRFH crystals, albeit with an ambiguous binding mode. […] In the case of compound 5, we observed a hydrogen bond between the amino group of the fragment and a backbone carbonyl in the neighbouring protein chain (Fig. 2i). […] Additionally, the pocket normally occupied by the conserved phenylalanine residue of the TIN2 F-X-L-X-P motif was fully obstructed by a crystal contact with a TRF1TRFH copy in an adjacent asymmetric unit, further limiting the possibility of obtaining XChem hits outside of the leucine pocket.
TRF1TRFH crystals in the P3_121 space group were grown by sitting drop vapour diffusion in SWISSCI 3-drop plates using similar crystallisation conditions to those described previously. The total drop volume was 300 nL, consisting of 150 nL of TRF1TRFH (31.2 mg/mL) and 150 nL of reservoir solution (1% PEG8000, 100 mM MES pH 6.0, 1–12 mM Mg(OAc)2, 10–15% glycerol), whilst the reservoir volume was 35 µL. Crystallisation plates were set up using an SPT Labtech mosquito Xtal2 liquid handler. Cuboid-shaped crystals grew to their maximum size (300 μm across) within 24 h. Crystals were cryoprotected through the addition of 180 nL of 40% glycerol to the crystal drop prior to harvesting, giving a final glycerol concentration of […] (accounting for the glycerol already in the crystallisation conditions). The crystals were then flash-frozen in liquid nitrogen, and data were collected at the Diamond Light Source beamlines I04 and I04-1 and processed automatically using the Xia2 Dials pipeline[53],[54]. The TRF1TRFH structure was solved by molecular replacement in Phaser MR[55] within CCP4[56] using the previously published TRF1TRFH structure as a search model (PDB: 1H6O)[31], after having first stripped the search model of solvent molecules and ligands. Structure refinement was done using Refmac[57] and Buster[36], and model correction and building was done using Coot 0.9.6[35].
The DSi-Poised library (768 fragment, Enamine)[32], the EUbOPEN DSiP extension library (108 fragments) and the FragLite library (31 fragments)[33] were screened against TRF1TRFH crystals. Compounds at 500 mM in DMSO stocks were dispensed into selected crystal drops as singletons using an Echo 550 liquid handler to give a final concentration of 50 mM (10% DMSO final concentration). After incubation for 1 h at 20 °C, 180 nL of glycerol (40% stock, final drop concentration 28.8–32.5%) were added to each drop immediately prior to crystal harvesting and flash-freezing in liquid nitrogen.
Data were collected on the I04-1 beamline at Diamond Light Source. […]

[4] = biological target: T2, (StrepII)2-TEV-tagged TIN2, subunit of …; test: mass photometry; SEC-purified shelterin without compound; complex of around 700 kDa; 50 mM HEPES-NaOH pH 8.0, 300 mM NaCl; settings: both partners purified

Molecule | stoichiometry N [4] | other results
COc1ccc2sc(N)nc2c1 [Compound 20] |  | Aq. Sol. [1]: 580 µM; CPMG reduction ([2]; average peak intensity reduction on addition of TRF1TRFH, 250 µM ligand, 20 µM protein): 25%; CPMG recovery ([2]; net recovery of peak intensity on addition of TIN2TBM peptide (40 µM) to compound plus protein): 0%; Crystal structure [3]: Yes
B1 | 1 TPP1 per TIN2 | 
B2 | 1 POT1 per TIN2 | 
B3 | 4 TRF2 per TIN2 | 
B4 | 4 RAP1 per TIN2 | 
